In series [1] the test system is Murine B16 F10 melanoma cells. The series can be described thus: Growth of murine B16 F10 melanoma cells in monolayer culture, viable cell count by hemocytometer, photomicrographs. It counts as cell-based. Conditions: for apoptosis: 5 μmol/L, B16 melanoma cells, photomicrographs; for IC50: read-out: IC50, inhibition of net increase in cell count. How it is done:
Murine B16 F10 melanoma cells (He, L., et al., supra, 1997) were grown in monolayer culture (35×10 mm tissue culture dishes) in 3 ml RPMI 1640 medium (Sigma Biosciences, St. Louis, Mo.) supplemented with 10% fetal bovine serum (FBS, Sigma Biosciences) and 2% penicillin/streptomycin (Penicillin-Streptomycin Liquid, 1×10^7 units penicilin and 1×10^7 μg streptomycin/L of 0.85% saline, GIBCO BRL, Grand Island, N.Y.). Cultures, seeded with 3.3×10^4 cells/mL, were incubated for 24 hours at 37° C. in a humidified atmosphere of 5% CO2. The medium was decanted and replaced with fresh medium containing the test agents and incubations were continued for 48 hours. M363 and M364 were dissolved in ethanol, and lovastatin (Mevinolin, Sigma) in chloroform. […] The medium and detached (apoptotic) cells were decanted, the monolayer was washed twice with Hanks' Balanced Salt Solution (HBSS, Sigma Biosciences) and then incubated with a trypsin-EDTA solution (Sigma Biosciences) at 37° C. for 2 minutes. Trypsin was inactivated by suspending the cells in medium containing 10% FBS. The trypsinized cells were harvested by centrifugation (250×g) and re-suspended in HBSS. Viable cells, cells that excluded 0.4% trypan blue (GIBCO BRL), were counted with a hemocytometer; 0-time (24-h) cell counts were deducted from final cell counts to provide an estimate of the net increase in cell number.
Photomicrographs (100×, 200× and 400×) of representative fields of cultures of B16 melanoma cells were made with a Labopot-2 microscope (Nikon, Japan) equipped with a SenSys digital camera (Photometrics Tucson, Ariz.) and image-acquisition software (MetaMorph Imaging Systems, Universal Imaging Corporation, West Chester, Pa.).
(§1) The IC50 value represents the concentration of an isoprenoid required to inhibit the net increase in cell count by 50% at a time point within the linear growth period plotted for control cells. We determined the IC50 value by plotting cell number against isoprenoid concentration.

Series [2] deals with Human HL-60 acute promyelocytic leukemia cells. As to the kind of experiment: Growth of human HL-60 leukemia cells in suspension culture, viable cell count by hemocytometer. It counts as cell-based. Conditions: human HL-60 promyelocytic leukemia cells, 24 hours; read-out: IC50, inhibition of net increase in cell count. How it is done: Human HL-60 acute promyelocytic leukemia cells (CCL-240, ATCC) were grown in suspension culture (25 cm^2 flasks) in 8 mL RPMI 1640 medium with 20% FBS and 2% penicillin/streptomycin. Cultures, seeded with 1.25×10^8 cells/L, were incubated with test agents for 24 hours at 37° C. in a humidified atmosphere of 5% CO2. The cells were then collected by centrifugation (250×g) and re-suspended in HBSS. Viable cells, cells that excluded 0.4% trypan blue, were counted with a hemocytometer; 0-time (seeding) cell counts were deducted from final cell counts to provide an estimate of the net increase in cell number.
as §1

Series [3] concerns Murine B16(F10) melanoma cells. As to the kind of experiment: CellTiter 96 Aqueous One Solution Cell Proliferation Assay. Particulars: 40 hour growth of B16 melanoma cells, 1000 cells/well; read-out: IC50, net absorbance at 490 nm. The series is classed as cell-based. How it is done:
Murine B16(F10) melanoma cells were grown in monolayer culture (96-well tissue culture plate, Fisher Scientific) in 0.1 mL of RPMI 1640 medium (Sigma) supplemented with 10% fetal bovine serum (Sigma) and 80 mg/L of gentamycin (Sigma). Cultures were seeded in triplicate (0 to 2450 cells/well with an increment of 350 cells) and incubated for 24 hours or 64 hours at 37° C. in a humidified atmosphere of 5% CO2. At 24 hours the medium was decanted from each well and replaced with fresh medium. Cell populations of all wells were determined at either 24 hours (0 time, 3 wells) or 64 hours (40 hours, all other wells) by adding 20 μl of CellTiter 96® Aqueous One Solution (Promega, Madison, Wis.) to each well; the plate was held in dart at 37° C. for 2 hours and then read at 490 nm with a SPECTRAmax® 190 multi-plate reader with SOFTmax® PRO (Molecular Devices, Sunnyvale, Calif.). The net absorbance, the difference between the 0 time and 40 hours values, plotted on cell inoculation density is linear to 2000 cells/well (FIG. 6). We then applied this optical method to the estimation of the IC50 for M364.
Plates seeded with 1000 cells/well, the midpoint of cell inoculation density (FIG. 6), were cultured as described above. The medium added at 24 hours (0 time) to experimental wells contained 0-10 μmol/L M364 ([4-(3,7,11-trimethyl-2,6,10-dodecatrienyloxy]-phenyl acetate).

The nature of series [4]: M364 dietary toxicity study in mice. The series is classed as in vivo, C57BL6 female mice. As for the experimental part:
M364 toxicity and efficacy studies are in progress. Weanling C57BL6 female mice (Harlan Sprague Dawley, Madison, Wis.) are housed in groups of five to six on Cellu-Dri bedding (Waldschmidt & Sons, Inc., Madison, Wis.) in stainless steel cages and maintained at 25° C. with a 12-hour light:dark cycle. Three groups of mice (11/group) are being fed AIN-93G diet supplemented with 0 (A, control), 1 (B) and 10 (C) mmol M364/kg diet. Food intakes for mice are recorded daily and mice are weighed on alternate days. Results to date are mixed. […] As a consequence, the body weight of these mice decreased from 13.6 to 11.7 g; on removing the agent (M364) from the diet the mice rapidly regained body weight.

In series [5] the test system is murine B16 melanoma cells.
For series [6], the system named is pancreatic tumors implanted in Syrian Golden hamsters. Particulars: 90 mmol/kg diet; cited from earlier work.
Series [7] deals with implanted B16 melanomas. The series can be described thus: Growth of implanted B16 melanomas, agent in diet. The series is classed as in vivo. The text has this: (§2) We synthesized and tested a series of esters formed between acyclic isoprenoid alcohols (geraniol, farnesol, nerol, citronellol) and diverse acids (proprionate, isobutyrate, formate, butyrate, caprylate, isovalerate, benzoate, tiglate, anthranilate). […] See Mo, et al. Cancer Letters 157:145-153, 2000 (incorporated by reference).
We note that the farnesyl moiety of the test agent comprised trans, trans and cis, trans isomers. […] The prospect of a chemotherapeutic application of […] is dimmed by findings that its very potent tumor-suppressive action is markedly attenuated by […], an essential dietary constituent (Qureshi, A., et al., J. Nutr. 126:389-394, 1996).

A short description of series [8]: Screening of acyclic isoprenoid esters for tumor-suppressive activity in vitro. It counts as cell-based.
Description: as §2

For series [9], the system named is implanted B16 melanomas. Particulars: cited from earlier work.
The mark [10] stands for this setting: murine melanoma B16 cells, 48 hours, hemocytometer.

The term IC50 denotes the point on the concentration scale where inhibition reaches its midpoint.

Where two headings read alike, the source gives them in different places.

Take `CC(=O)Oc1ccc(OCC=C(C)CCC=C(C)C)cc1` [M363, [4-(3,7-dimethyl-2,6-octadienyloxy]-phenyl acetate]: the apoptosis result in series [1] was “initiated apoptosis”. Besides, the IC50 in series [1] (setting [10]) worked out at 5.1 ± 0.8 µM; in series [2] it was 58.6 ± 2.3 µM.

As for `CC(=O)Oc1ccc(OCC=C(C)CCC=C(C)CCC=C(C)C)cc1` [M364, [4-(3,7,11-trimethyl-2,6,10-dodecatrienyloxy]-phenyl acetate], the apoptosis result in series [1] is recorded as “initiated apoptosis”. Also, the “suppression of cell growth” value in series [1] (M364 1 μmol/L, B16 cells) worked out at 45%. Also, the IC50 in [1] (setting [10]) turned out to be 2 ± 0.6 µM; in series [2], 4.9 ± 3.7 µM; in series [3], 2.2 µM. Besides, the “body weight and general appearance” value in [4] (1 mmol M364/kg diet) is on record as “match the controls”. Moreover, the “general condition of mice” value in series [4] (10 mmol M364/kg diet) was “remained healthy and active”. Moreover, in series [4] (10 mmol M364/kg diet, 6 day exposure), the food intake result is “decreased”. Further, in series [4] (10 mmol M364/kg diet, 6 day exposure, decreased from 13.6 g, regained on removing agent), the “body weight after exposure to diet” value is 11.7 g. In addition, in series [5] (M364 1 μmol/L), the “increase in proportion of cells in G1” value is reported as 33%.

For `CC(C)=CCCC(C)=CCCC(C)=CCO` [farnesol], the “growth of implanted pancreatic tumors” value in series [6] is reported as “suppressed the growth”.

Consider `CC(C)=CCCC(C)=CCCC(C)=CCOC(=O)c1ccccc1N` [farnesyl anthranilate], for which the “morphological changes of cells” value in series [1] (100 μmol/L, B16 cells, 400× photomicrograph FIG. 4F) was “morphological changes similar to those attained with 10 μmol M364”. Also, the IC50 in [1] (Mus musculus, 48 h) came to 45 ± 6 µM; in series [2] it was 80 ± 10 µM. Also, the “growth of implanted B16 melanomas” value with implanted B16 melanomas [7] (1.5 mmol/kg diet) was “substantially suppressed the growth”. Besides, the “effect of dietary α-tocopherol on the agent's action” value in the series with implanted B16 melanomas [7] (dietary α-tocopherol) is reported as “did not compromise”. Further, the “tumor-suppressive activity in vitro” value in [8] was “significant tumor-suppressive activity”.

On to `CC(C)=CCCC(C)=CCCC(C)=CCOC(=O)c1ccccc1` [farnesyl benzoate], for which the “tumor-suppressive activity in vitro” value in [8] was “significant tumor-suppressive activity”.

Turning to `C/C=C(\C)C(=O)OCC=C(C)CCC=C(C)CCC=C(C)C` [farnesyl tiglate], the “tumor-suppressive activity in vitro” value in series [8] is on record as “significant tumor-suppressive activity”.

On to `CC(C)=CCC/C(C)=C/COC(=O)c1ccccc1N` [geranyl anthranilate], for which the “tumor-suppressive activity in vitro” value in series [8] was “significant tumor-suppressive activity”.

On to `CC(C)=CCC/C(C)=C/COC(=O)c1ccccc1` [geranyl benzoate], for which the “tumor-suppressive activity in vitro” value in series [8] is “significant tumor-suppressive activity”.

Consider `C/C=C(\C)C(=O)OC/C=C(\C)CCC=C(C)C` [geranyl tiglate], for which, in series [8], the “tumor-suppressive activity in vitro” value was “significant tumor-suppressive activity”.

Take `CC[C@H](C)C(=O)O[C@H]1C[C@@H](C)C=C2C=C[C@H](C)[C@H](CC[C@@H]3C[C@@H](O)CC(=O)O3)[C@H]21` [lovastatin]: in series [1] (lovastatin 0.75 μmol/L, B16 cells), the “suppression of cell growth” value amounted to 25%. The “increase in portion of cells in G1” value in series [5] (lovastatin 0.75 μmol/L) stood at 33%.

As to `CC(C)=CCC/C(C)=C/CC/C(C)=C/CC[C@]1(C)CCc2cc(O)c(C)c(C)c2O1` [γ-tocotrienol], the “growth of implanted B16 melanomas” value in the series on implanted B16 melanomas [9] (0.116 mmol/kg diet) is “suppressed the growth”. Also, the “efficacy in suppressing growth of implanted melanomas relative to farnesol” value in the series with implanted B16 melanomas [9] (<1 mmol/kg diet) is recorded as about 100 ×.

Source of the values: US6566397B2, “Acyclic isoprenoid ether derivatives as chemotherapeutics” (Wisconsin Alumni Research Foundation, priority 2000, dated 2003).
